Test results: US6872690B2, “Herbicidal 2-alkynyl-pyri (mi) dines” (WYETH, priority 2001, dated 2005)

Key:
Format in all cases: in vivo
[1] = tested on: Abutilon theophrasti; test: Pre-emergence test; details: 3 weeks after treatment
Procedure, shortened: (§1)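 Pre-em soil spray on prepared horticultural loam just after sowing; acetone stock + 0.4% alkylphenol ethoxylate, water-diluted; 0.013–0.400 kg/ha, 900 L/ha spray volume. Scored vs untreated sown pots at 2–4 wk.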

[2] = tested on: Alopecurus myosuroides; test: Pre-emergence test; details: 3 weeks after treatment
Procedure, shortened: as §1

[3] = tested on: Ambrosia artemisifolia; test: Pre-emergence test; details: 3 weeks after treatment
Procedure, shortened: as §1

[4] = tested on: Cassia obtusifolia; test: Pre-emergence test; details: 3 weeks after treatment
Procedure, shortened: as §1

[5] = tested on: Echinochloa crus-galli; test: Pre-emergence test; details: 3 weeks after treatment
Procedure, shortened: as §1

[6] = tested on: Glycine max; test: Pre-emergence test; details: 3 weeks after treatment
Procedure, shortened: as §1

[7] = tested on: Ipomoea hederacea; test: Pre-emergence test; details: 3 weeks after treatment
Procedure, shortened: as §1

[8] = tested on: Matricaria inodora; test: Pre-emergence test; details: 3 weeks after treatment
Procedure, shortened: as §1

[9] = tested on: Setaria viridis; test: Pre-emergence test; details: 3 weeks after treatment
Procedure, shortened: as §1

[10] = tested on: Triticum aestivum; test: Pre-emergence test; details: 3 weeks after treatment
Procedure, shortened: as §1

[11] = tested on: Zea mays; test: Pre-emergence test; details: 3 weeks after treatment
Procedure, shortened: as §1

[12] = tested on: Abutilon theophrasti; test: Post-emergence herbicidal activity test; details: 2-4 weeks after treatment
Procedure, shortened: (§2)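 Sprayed post-emergence at about 0.025 to 0.4 kg per hectare per pot, using water-diluted acetone solutions, then assessed by visual rating after 2 to 4 weeks in the greenhouse.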

[13] = tested on: Alopecurus myosuroides; test: Post-emergence herbicidal activity test; details: 2-4 weeks after treatment
Procedure, shortened: as §2

[14] = tested on: Ambrosia artemisifolia; test: Post-emergence herbicidal activity test; details: 2-4 weeks after treatment
Procedure, shortened: as §2

[15] = tested on: Echinochloa crus-galli; test: Post-emergence herbicidal activity test; details: 2-4 weeks after treatment
Procedure, shortened: as §2

[16] = tested on: Glycine max; test: Post-emergence herbicidal activity test; details: 2-4 weeks after treatment
Procedure, shortened: as §2

[17] = tested on: Ipomoea hederacea; test: Post-emergence herbicidal activity test; details: 2-4 weeks after treatment
Procedure, shortened: as §2

[18] = tested on: Matricaria inodora; test: Post-emergence herbicidal activity test; details: 2-4 weeks after treatment
Procedure, shortened: as §2

[19] = tested on: Setaria viridis; test: Post-emergence herbicidal activity test; details: 2-4 weeks after treatment
Procedure, shortened: as §2

[20] = tested on: Triticum aestivum; test: Post-emergence herbicidal activity test; details: 2-4 weeks after treatment
Procedure, shortened: as §2

[21] = tested on: Zea mays; test: Post-emergence herbicidal activity test; details: 2-4 weeks after treatment
Procedure, shortened: as §2

Cc1cc(C#Cc2ccc(F)cc2)nc(Oc2cc(C(F)(F)F)nn2C)c1 [Example 2, 4-methyl-6-(4-fluorophenylethynyl)-2-(1-methyl-3-trifluoromethylpyrazol-5-yloxy)-pyridine]
3 (3-Moderate effect): Assessment (pre-emergence application) ABUTH ([1]; 0.400 kg/ha) | Assessment (pre-emergence application) CASOB ([4]; 0.100 kg/ha) | Assessment (pre-emergence application) GLXMA ([6]; 0.400 kg/ha) | Assessment (pre-emergence application) SETVI ([9]; 0.013 kg/ha) | Post-emergence application ALOMY ([13]; 0.100 kg/ha) | Post-emergence application ECHCG ([15]; 0.025 kg/ha) | Post-emergence application TRZWA ([20]; 0.400 kg/ha)
5 (5-Definite injury): Assessment (pre-emergence application) ALOMY ([2]; 0.100 kg/ha) | Assessment (pre-emergence application) MATIN ([8]; 0.025 kg/ha) | Post-emergence application ALOMY ([13]; 0.400 kg/ha) | Post-emergence application AMBEL ([14]; 0.100 kg/ha) | Post-emergence application GLXMA ([16]; 0.100 kg/ha) | Post-emergence application MATIN ([18]; 0.100 kg/ha)
0 (0-No effect): Assessment (pre-emergence application) ABUTH ([1]; 0.013 kg/ha) | Assessment (pre-emergence application) MBEL ([3]; 0.013 kg/ha) | Assessment (pre-emergence application) CASOB ([4]; 0.013 kg/ha) | Assessment (pre-emergence application) GLXMA ([6]; 0.013 kg/ha) | Assessment (pre-emergence application) IPOHE ([7]; 0.013 kg/ha) | Assessment (pre-emergence application) TRZWA ([10]; 0.013 kg/ha) | Assessment (pre-emergence application) TRZWA ([10]; 0.025 kg/ha) | Assessment (pre-emergence application) ZEAMX ([11]; 0.013 kg/ha) | Assessment (pre-emergence application) ZEAMX ([11]; 0.025 kg/ha)
6 (6-Herbicidal effect): Assessment (pre-emergence application) MBEL ([3]; 0.100 kg/ha) | Assessment (pre-emergence application) ECHCG ([5]; 0.100 kg/ha) | Assessment (pre-emergence application) IPOHE ([7]; 0.400 kg/ha) | Post-emergence application ABUTH ([12]; 0.100 kg/ha)
7 (7-Good herbicidal effect): Assessment (pre-emergence application) CASOB ([4]; 0.400 kg/ha) | Assessment (pre-emergence application) ECHCG ([5]; 0.400 kg/ha) | Post-emergence application AMBEL ([14]; 0.400 kg/ha) | Post-emergence application GLXMA ([16]; 0.400 kg/ha) | Post-emergence application IPOHE ([17]; 0.025 kg/ha) | Post-emergence application IPOHE ([17]; 0.100 kg/ha) | Post-emergence application SETVI ([19]; 0.100 kg/ha)
1 (1-Trace effect): Assessment (pre-emergence application) ABUTH ([1]; 0.025 kg/ha) | Assessment (pre-emergence application) ALOMY ([2]; 0.013 kg/ha) | Assessment (pre-emergence application) CASOB ([4]; 0.025 kg/ha) | Assessment (pre-emergence application) ECHCG ([5]; 0.013 kg/ha) | Assessment (pre-emergence application) GLXMA ([6]; 0.025 kg/ha) | Assessment (pre-emergence application) IPOHE ([7]; 0.025 kg/ha) | Assessment (pre-emergence application) MATIN ([8]; 0.013 kg/ha) | Assessment (pre-emergence application) ZEAMX ([11]; 0.100 kg/ha) | Post-emergence application ZEAMX ([21]; 0.025 kg/ha)
8 (8-Approaching complete kill): Assessment (pre-emergence application) ALOMY ([2]; 0.400 kg/ha) | Assessment (pre-emergence application) SETVI ([9]; 0.100 kg/ha) | Post-emergence application ABUTH ([12]; 0.400 kg/ha) | Post-emergence application ECHCG ([15]; 0.400 kg/ha) | Post-emergence application MATIN ([18]; 0.400 kg/ha)
9 (9-Complete kill): Assessment (pre-emergence application) MBEL ([3]; 0.400 kg/ha) | Assessment (pre-emergence application) MATIN ([8]; 0.100 kg/ha) | Assessment (pre-emergence application) MATIN ([8]; 0.400 kg/ha) | Assessment (pre-emergence application) SETVI ([9]; 0.400 kg/ha) | Post-emergence application IPOHE ([17]; 0.400 kg/ha) | Post-emergence application SETVI ([19]; 0.400 kg/ha)
4 (4-Injury): Assessment (pre-emergence application) SETVI ([9]; 0.025 kg/ha) | Assessment (pre-emergence application) TRZWA ([10]; 0.400 kg/ha) | Post-emergence application ECHCG ([15]; 0.100 kg/ha) | Post-emergence application GLXMA ([16]; 0.025 kg/ha) | Post-emergence application SETVI ([19]; 0.025 kg/ha)
2 (2-Slight effect): Assessment (pre-emergence application) ABUTH ([1]; 0.100 kg/ha) | Assessment (pre-emergence application) ALOMY ([2]; 0.025 kg/ha) | Assessment (pre-emergence application) MBEL ([3]; 0.025 kg/ha) | Assessment (pre-emergence application) ECHCG ([5]; 0.025 kg/ha) | Assessment (pre-emergence application) GLXMA ([6]; 0.100 kg/ha) | Assessment (pre-emergence application) IPOHE ([7]; 0.100 kg/ha) | Assessment (pre-emergence application) TRZWA ([10]; 0.100 kg/ha) | Assessment (pre-emergence application) ZEAMX ([11]; 0.400 kg/ha) | Post-emergence application ABUTH ([12]; 0.025 kg/ha) | Post-emergence application ALOMY ([13]; 0.025 kg/ha) | Post-emergence application AMBEL ([14]; 0.025 kg/ha) | Post-emergence application MATIN ([18]; 0.025 kg/ha) | Post-emergence application TRZWA ([20]; 0.025 kg/ha) | Post-emergence application TRZWA ([20]; 0.100 kg/ha) | Post-emergence application ZEAMX ([21]; 0.100 kg/ha) | Post-emergence application ZEAMX ([21]; 0.400 kg/ha)
